Among the data in a melting point compilation (Tetko et al.; mined from patent text by program, amines drawn as free bases though some values may be those of a salt) are melting point values, retold here.

By melting point is commonly meant the temperature of the solid-liquid transition.

Regarding `COC(=O)c1ncc(C)cc1S(N)(=O)=O`, the melting point was in the range of 86 to 88 °C.
Take `COc1ccc(C(=O)c2cccc([N+](=O)[O-])c2)cc1OC`: the melting point fell in the range of 133 to 135 °C.
With `CC(C)=NNc1ccnc2c(NC(=O)c3c(Cl)cccc3Cl)cc(C)cc12` the figure was 242 to 245 °C; with `Nc1ccccc1NCC12CC3CC(CC(C3)C1)C2`, 101 to 104 °C.
`Cc1c(C)n(Cc2ccccc2)c(=O)n(CCCCl)c1=O` had a melting point of 72 to 74 °C.
Turning to `CC(=O)NCC(=O)c1cc(OC(C)=O)c(OC(C)=O)c([N+](=O)[O-])c1`, the melting point lay within 121 to 124 °C.
Regarding `CC(CN(C)C)CN1c2ccccc2OCOc2ccc(Cl)cc21` (single isomer, unassigned; (-)), the melting point lay within 92 to 95 °C.
The value for `O=C1c2nccnc2C(O)N1c1ccc(Cl)cn1` (centres undefined) was 236 °C; that for `CCOC(=O)c1ccc(N2CCN(c3c(C)nc(N)nc3N)CC2)cc1` was 281 to 285 °C.
Compound `COc1ccc(CN2CCC(=C3c4ccc(Cl)cc4CCc4cccnc43)CC2)cn1` returned a melting point of 60.2 to 64.1 °C.
In the case of `COc1ccc(CNc2nnc(N(C)CCCO)c3ccc(Cl)cc23)cc1Cl`, the melting point was 115 to 117 °C.
The value for `COC(=O)C1=C(C)NC(=O)N(C(=O)OC)C1c1cccc(N)c1` (centres undefined) was 190 to 193 °C; that for `Oc1ccc2ccc(Oc3c(Cl)cc(C(F)(F)F)cc3Cl)cc2c1` was 98 °C.
The value for `CCn1c(=O)ccc2cnc(Nc3ccccc3OC)nc21` was 126 to 128 °C; that for `COc1ccc(C(=O)Nc2ccc3ccc(Oc4ccccc4)nc3n2)nn1` was 95 °C.
`Cc1ncc([N+](=O)[O-])n1CCN1C(=O)c2ccccc2C1=O`: the melting point came to 177 °C.
The compound `CCCCCCCCCCCCCCCCO[C@@H]1CCCO[C@H]1COCc1ccccc1` (relative stereo) displayed a melting point of 28.5 to 29.5 °C.
`COC(=O)c1c(OCc2ccc(-c3ccccc3-c3nnn[nH]3)cc2)cc(C)nc1Cl` displayed a melting point of 204 to 207 °C.
`COc1cc(C=O)ccc1NC(C)=O` gave a melting point of 145 °C.
Take `C=CCOP(=O)(OCC=C)C(N)=O`: the melting point lay within 91 to 94 °C.
In turn, `O=C(O)CON=C1CCCc2cc(OCCn3ccnc3)ccc21` had a melting point of 193 to 195 °C.
In turn, `CC(=NO)c1noc2ccccc12` showed a melting point of 193 to 195 °C.
In the case of `CCOC(=O)c1c(CCCn2cncn2)nc2sc3cnccc3c2c1-c1ccc(OC)c(OC)c1`, the melting point is 127 to 129 °C.
Take `CN(C)CCNC(=O)c1cn(C)c(=O)c2cc3cccnc3nc12`: the melting point lay within 218 to 221 °C.
The compound `CS(=O)(=O)N[C@@H]1CCCC[C@H]1Nc1nc(Nc2cc(F)cc3c2OCCNC3=O)ncc1Cl` showed a melting point of 177 to 181 °C.
The value for `CC(=O)Nc1ccccc1N1CCOCC1` was 140 to 141 °C; that for `Nc1nc(-c2cc(Cl)ccc2Cl)nc(N2CCCCC2C(=O)O)n1` (centres undefined) was 237 to 240 °C; that for `CC(=O)OCC(=O)c1ccc(C)cc1C` was 43 to 45 °C.
With `Cc1cc(C)cc(Cc2c(C(C)C)c(=O)[nH]c(=O)n2COCCCN(OC(=O)Oc2ccccc2)C(=O)Oc2ccccc2)c1` the figure was 59 to 61 °C; with `CCOC(C)O[C@H]1C(=O)N(C(=O)OCc2ccccc2)[C@H]1c1ccccc1` (some centres undefined), 58 to 60 °C; with `CCCCCCOC1=c2ccc3c(c2=C(c2ccc4c(c2)OCO4)C(C)(C(=O)OC)C1(C)C(=O)OC)OCO3` (centres undefined), 110 to 111 °C.
With `CC(=O)c1ncn(-c2ccccc2)n1` the figure was 174 to 176 °C; with `CCc1nc2c(Cl)ncnc2n1C(C1CC1)C1CC1`, 99 to 100 °C.
In the case of `CC(C)N1CC(c2nnc(Cc3ccc(F)cc3)o2)=C(O)C1=O`, the melting point fell in the range of 204 to 206 °C.
With `CN(C)C(=O)c1ccccc1Sc1ccc(F)cc1[N+](=O)[O-]`, the melting point lay within 56 to 57 °C.
As to `COC(=O)CCc1nc(C(=O)OC)ccc1OC`, the melting point fell in the range of 98 to 100 °C.
With `COCOc1ccc(Nc2ncccc2[N+](=O)[O-])cc1` the figure was 80 to 81 °C; with `OCC1OC(n2c(Cl)nc3c(Br)c(Br)c(Br)cc32)C(O)C1O` (centres undefined), 168 to 170 °C.
The compound `CC(/C=C/c1ccccc1-c1ccc2c(c1)C(C)(C)CCC2(C)C)=C\C(=O)O` showed a melting point of 178 to 179 °C.
The value for `O=C(CCCCl)c1cc2c(s1)C(=O)NCCC2` was 163 to 165 °C.
With `Cc1cc(C#N)cc(C(=O)Nc2cccc(F)c2)n1` the figure was 139 °C; with `COC(=O)c1cccc(Sc2ccccc2)c1S(C)(=O)=O`, 151 °C; with `c1ccc(OCc2ccc(OCc3ccc4ccccc4n3)cc2)cc1`, 100 to 111 °C.
The value for `O=c1c2ccc(Cl)cc2n(Cc2ccccc2)n2c(Br)ccc12` was 148 to 149 °C; that for `CCc1cnc(N2CCC(c3nc4cc(-c5ccc(-n6cnnn6)cc5F)ccc4o3)CC2)nc1` was 188 to 192 °C; that for `CC1=C(CC2=CC(=O)C=CC2=O)C(=O)C2C=CC=CC2C1=O` (centres undefined) was 142 to 144 °C.
Compound `CCOC(=O)Nc1nc2cc(C(O)c3ccccc3)ccc2[nH]1` (centres undefined) came in with a melting point of more than 315 °C.
On to `CNC(=O)c1ccc(C)c(-n2c(C)cc(OCc3ccccc3CNC(=O)Nc3cc(C(C)(C)C)nn3-c3ccc(Cl)c(O)c3)c(Cl)c2=O)c1`, for which the melting point was in the range of 201 to 203 °C.
Regarding `O=C(c1ccc(Cl)cc1)C(Cn1cncn1)n1cncn1` (centres undefined), the melting point was determined as 204 °C.
In turn, `Nc1cc(-c2nc(-c3ccco3)no2)ccc1Cl` yielded a melting point of 203 to 204 °C.
With `CCOCn1cc(-c2ccnc(N)n2)c2c(OC)cc(Br)nc21` the figure was more than 210 °C; with `NC(=O)C1CCc2ccc([N+](=O)[O-])cc21` (centres undefined), 144 to 145 °C.
`Cc1cc(-c2cc(C(F)F)n3ncc(I)c3n2)ccc1Cl`: the melting point came to 144 °C.
Turning to `C[C@H](NC1=NC=NC(N)(Cl)N1)c1ccccc1` (some centres undefined), the melting point lay in the range of 163 to 164 °C.
`CC(Sc1ccccc1)n1cc(C2=C(c3cn(C(C)Sc4ccccc4)c4ccccc34)C(=O)NC2=O)c2ccccc21` (centres undefined) came in with a melting point of 102 to 105 °C.
`O=C(NCCn1cc(C(=O)OCc2ccccc2)ccc1=O)c1cccnc1` showed a melting point of 154 to 155 °C.
With `CCCC#CCn1ncc(-c2ccc(S(C)(=O)=O)cc2)c(-c2ccc(F)cc2)c1=O` the figure was 79 to 80 °C; with `CCOC(=O)/C=C(/c1ccc(OC)cc1)c1cc(F)cc(F)c1`, 65 to 66 °C; with `O=c1[nH]c2ccccc2c(=O)n1CCCCNCCCn1c(=O)[nH]c2ccccc2c1=O`, 140 °C.
Consider `CC(C)(C)N(NC(=S)c1ccc(Cl)cc1)C(=O)c1ccccc1`, for which the melting point lay in the range of 160 to 162 °C.
With `Cc1c(Cc2cccc(C(F)(F)F)c2)sc2c(-c3cccc(C(=O)NCC(N)=O)c3)cccc12` the figure was 187 to 188 °C; with `CCc1ccc(SCCC(=O)O)cc1`, 59 to 60 °C; with `OCC(COCCCCCCCCOc1ccc(-c2ccccc2)cc1)OCc1ccccc1` (centres undefined), 48 to 50 °C.
`C#CCn1c(-c2ccccc2)nc(C(F)(F)F)c(CC)c1=O`: the melting point is 111 to 114 °C.
